{"source": "patent US20170037028A1", "about": "(BAYER PHARMA AKTIENGESELLSCHAFT, priority 2013, published 2017)", "biological_target": "T1, GLUT1 (Homo sapiens, UniProt P11166)", "T1 sequence (P11166 1-492)": "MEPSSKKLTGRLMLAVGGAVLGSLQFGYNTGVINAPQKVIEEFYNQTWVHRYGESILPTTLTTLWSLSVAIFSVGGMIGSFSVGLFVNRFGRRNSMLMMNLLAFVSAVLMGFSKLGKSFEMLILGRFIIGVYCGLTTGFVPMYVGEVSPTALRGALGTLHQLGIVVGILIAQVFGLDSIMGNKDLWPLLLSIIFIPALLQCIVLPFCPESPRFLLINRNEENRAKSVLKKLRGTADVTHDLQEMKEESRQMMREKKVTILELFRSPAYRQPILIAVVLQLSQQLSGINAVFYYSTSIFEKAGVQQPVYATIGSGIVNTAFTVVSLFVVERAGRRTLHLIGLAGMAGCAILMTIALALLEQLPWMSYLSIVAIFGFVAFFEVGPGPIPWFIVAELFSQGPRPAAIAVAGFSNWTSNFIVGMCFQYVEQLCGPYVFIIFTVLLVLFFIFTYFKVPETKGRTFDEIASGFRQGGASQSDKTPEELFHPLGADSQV", "assay": "Indirect measurement of GLUT1 activity by quantification of intracellular ATP levels (glucose induced ATP increase)", "format": "cell-based", "parameters": "endogenous in cells; host or cells: DLD1 or CHO-K1", "settings": "read-out: IC50 regarding glucose induced ATP increase (GLUT1 inhibition)", "text": "Indirect Measurement of GLUT1 and GLUT2 Activity by Quantification of Intracellular ATP Levels\nIt is well known that a combination of small-molecule inhibitors of mitochondrial electron transport chain and glucose catabolism synergistically suppress ATP production and impair cellular viability (Ulanovskaya et al., 2008, 2011; Liu, et al. 2001). We therefore used DLD1 or CHO-K1 cells in combination with an oxidative phosphorylation inhibitor to identify GLUT1 and GLUT2 inhibitors. Cell lines were maintained in DMEM medium supplemented with 10% FCS and 1% Penicillin-Streptomycin solution and 2% Glutamax. The cells were treated with trypsin and seeded into 384 plates at a density of 4000 cells/well. The cells were then cultured overnight in glucose free media containing 1% FCS to reduce intracellular ATP levels. […] The CellTiter-Glo® Luminescent Cell Viability Assay from Promega was then used to measure ATP Levels.", "data": [{"smiles": "Cc1nn(Cc2ccc(F)cc2)c(C)c1NC(=O)c1cc(C(C)C)nc2ccc(Br)cc12", "note": "[Example 2, 6-bromo-N-[1-(4-fluorobenzyl)-3,5-dimethyl-1H-pyrazol-4-yl]-2-(propan-2-yl)quinoline-4-carboxamide]", "values": [{"measurement": "IC50", "result": 2.8, "unit": "nM"}]}, {"smiles": "COc1ccc(Cn2nc(C)c(NC(=O)c3cc(C(F)(F)F)nc4ccc(Br)cc34)c2C)cc1", "note": "[Example 3, 6-bromo-N-[1-(4-methoxybenzyl)-3,5-dimethyl-1H-pyrazol-4-yl]-2-(trifluoromethyl)quinoline-4-carboxamide]", "values": [{"measurement": "IC50", "result": 3.1, "unit": "nM"}]}, {"smiles": "COc1ccc(Cn2nc(C)c(NC(=O)c3cc(C)nc4ccc(C)cc34)c2C)cc1", "note": "[Example 4, N-[1-(4-methoxybenzyl)-3,5-dimethyl-1H-pyrazol-4-yl]-2,6-dimethylquinoline-4-carboxamide]", "values": [{"measurement": "IC50", "result": 3.8, "unit": "nM"}]}, {"smiles": "Cc1nn(Cc2ccccc2C#N)c(C)c1NC(=O)c1cc(C(F)(F)F)nc2ccc(Br)cc12", "note": "[Example 6, 6-bromo-N-[1-(2-cyanobenzyl)-3,5-dimethyl-1H-pyrazol-4-yl]-2-(trifluoromethyl)quinoline-4-carboxamide]", "values": [{"measurement": "IC50", "result": 4.7, "unit": "nM"}]}, {"smiles": "Cc1ccc2nc(C3CC3)cc(C(=O)Nc3c(C)nn(Cc4ccc(F)cc4)c3C)c2c1", "note": "[Example 7, 2-cyclopropyl-N-[1-(4-fluorobenzyl)-3,5-dimethyl-1H-pyrazol-4-yl]-6-methylquinoline-4-carboxamide]", "values": [{"measurement": "IC50", "result": 4.9, "unit": "nM"}]}, {"smiles": "COc1ccc(Cn2nc(C)c(NC(=O)c3cc(C(F)(F)F)nc4c(Cl)cc(Cl)cc34)c2C)cc1", "note": "[Example 8, 6,8-dichloro-N-[1-(4-methoxybenzyl)-3,5-dimethyl-1H-pyrazol-4-yl]-2-(trifluoromethyl)quinoline-4-carboxamide]", "values": [{"measurement": "IC50", "result": 5.4, "unit": "nM"}]}, {"smiles": "Cc1nn(Cc2ccc(F)cc2)c(C)c1NC(=O)c1cc(C(F)(F)F)nc2ccc(Br)cc12", "note": "[Example 9, 6-bromo-N-[1-(4-fluorobenzyl)-3,5-dimethyl-1H-pyrazol-4-yl]-2-(trifluoromethyl)quinoline-4-carboxamide]", "values": [{"measurement": "IC50", "result": 6.2, "unit": "nM"}]}, {"smiles": "Cc1nn(Cc2ccc(F)cc2)c(C)c1NC(=O)c1cc(C2CC2)nc2ccc(F)cc12", "note": "[Example 10, 2-cyclopropyl-6-fluoro-N-[1-(4-fluorobenzyl)-3,5-dimethyl-1H-pyrazol-4-yl]quinoline-4-carboxamide]", "values": [{"measurement": "IC50", "result": 6.4, "unit": "nM"}]}, {"smiles": "Cc1nn(Cc2ccc(C#N)cc2)c(C)c1NC(=O)c1cc(C(F)(F)F)nc2c(Cl)cc(Cl)cc12", "note": "[Example 11, 6,8-dichloro-N-[1-(4-cyanobenzyl)-3,5-dimethyl-1H-pyrazol-4-yl]-2-(trifluoromethyl)quinoline-4-carboxamide]", "values": [{"measurement": "IC50", "result": 6.6, "unit": "nM"}]}, {"smiles": "Cc1nn(Cc2ccc(F)cc2)c(C)c1NC(=O)c1cc(C2CC2)nc2ccc(Br)cc12", "note": "[Example 12, 6-bromo-2-cyclopropyl-N-[1-(4-fluorobenzyl)-3,5-dimethyl-1H-pyrazol-4-yl]quinoline-4-carboxamide]", "values": [{"measurement": "IC50", "result": 7.7, "unit": "nM"}]}, {"smiles": "Cc1nn(Cc2c(F)cccc2F)c(C)c1NC(=O)c1cc(C(F)(F)F)nc2ccc(Br)cc12", "note": "[Example 13, 6-bromo-N-[1-(2,6-difluorobenzyl)-3,5-dimethyl-1H-pyrazol-4-yl]-2-(trifluoromethyl)quinoline-4-carboxamide]", "values": [{"measurement": "IC50", "result": 11.3, "unit": "nM"}]}, {"smiles": "Cc1nn(Cc2ccc(F)cc2)c(C)c1NC(=O)c1cc(C(F)(F)F)nc2ccc(Cl)cc12", "note": "[Example 14, 6-chloro-N-[1-(4-fluorobenzyl)-3,5-dimethyl-1H-pyrazol-4-yl]-2-(trifluoromethyl)quinoline-4-carboxamide]", "values": [{"measurement": "IC50", "result": 11.5, "unit": "nM"}]}, {"smiles": "Cc1nn(Cc2ccc(F)cc2)c(C)c1NC(=O)c1cc(C2CC2)nc2c(Br)cccc12", "note": "[Example 16, 8-bromo-2-cyclopropyl-N-[1-(4-fluorobenzyl)-3,5-dimethyl-1H-pyrazol-4-yl]quinoline-4-carboxamide]", "values": [{"measurement": "IC50", "result": 12.1, "unit": "nM"}]}, {"smiles": "COc1cc(C(=O)Nc2c(C)nn(Cc3ccc(F)cc3F)c2C)c2ccccc2n1", "note": "[Example 17, N-[1-(2,4-difluorobenzyl)-3,5-dimethyl-1H-pyrazol-4-yl]-2-methoxyquinoline-4-carboxamide]", "values": [{"measurement": "IC50", "result": 12.2, "unit": "nM"}]}, {"smiles": "Cc1nn(Cc2ccc(F)cc2)c(C)c1NC(=O)c1cc(C(F)(F)F)nc2c(Br)cccc12", "note": "[Example 18, 8-bromo-N-[1-(4-fluorobenzyl)-3,5-dimethyl-1H-pyrazol-4-yl]-2-(trifluoromethyl)quinoline-4-carboxamide]", "values": [{"measurement": "IC50", "result": 12.4, "unit": "nM"}]}, {"smiles": "Cc1nn(Cc2ccc(F)cc2)c(C)c1NC(=O)c1cc(C2CC2)nc2ccccc12", "note": "[Example 19, 2-cyclopropyl-N-[1-(4-fluorobenzyl)-3,5-dimethyl-1H-pyrazol-4-yl]quinoline-4-carboxamide]", "values": [{"measurement": "IC50", "result": 12.7, "unit": "nM"}]}, {"smiles": "Cc1nn(Cc2c(F)cccc2F)c(C)c1NC(=O)c1cc(C(F)(F)F)nc2c(Cl)cc(Cl)cc12", "note": "[Example 20, 6,8-dichloro-N-[1-(2,6-difluorobenzyl)-3,5-dimethyl-1H-pyrazol-4-yl]-2-(trifluoromethyl)quinoline-4-carboxamide]", "values": [{"measurement": "IC50", "result": 12.7, "unit": "nM"}]}, {"smiles": "Cc1cc(Br)c2nc(C(F)(F)F)cc(C(=O)Nc3c(C)nn(Cc4ccc(F)cc4)c3C)c2c1", "note": "[Example 21, 8-bromo-N-[1-(4-fluorobenzyl)-3,5-dimethyl-1H-pyrazol-4-yl]-6-methyl-2-(trifluoromethyl)quinoline-4-carboxamide]", "values": [{"measurement": "IC50", "result": 14.8, "unit": "nM"}]}, {"smiles": "Cc1nn(Cc2ccc(F)cc2)c(C)c1NC(=O)c1cc(C(F)(F)F)nc2ccc(Cl)c(Cl)c12", "note": "[Example 22, 5,6-dichloro-N-[1-(4-fluorobenzyl)-3,5-dimethyl-1H-pyrazol-4-yl]-2-(trifluoromethyl)quinoline-4-carboxamide]", "values": [{"measurement": "IC50", "result": 15.4, "unit": "nM"}]}, {"smiles": "COc1cc(C(=O)Nc2c(C)nn(Cc3ccc(OC(F)(F)F)cc3)c2C)c2ccccc2n1", "note": "[Example 23, N-{3,5-dimethyl-1-[4-(trifluoromethoxy)benzyl]-1H-pyrazol-4-yl}-2-methoxyquinoline-4-carboxamide]", "values": [{"measurement": "IC50", "result": 15.4, "unit": "nM"}]}, {"smiles": "Cc1ccccc1Cn1nc(C)c(NC(=O)c2cc(C(F)(F)F)nc3ccc(Br)cc23)c1C", "note": "[Example 24, 6-bromo-N-[3,5-dimethyl-1-(2-methylbenzyl)-1H-pyrazol-4-yl]-2-(trifluoromethyl)quinoline-4-carboxamide]", "values": [{"measurement": "IC50", "result": 15.5, "unit": "nM"}]}, {"smiles": "Cc1nn(Cc2ccc(F)cc2)c(C)c1NC(=O)c1cc(C(F)(F)F)nc2c(Cl)cc(Cl)cc12", "note": "[Example 25, 6,8-dichloro-N-[1-(4-fluorobenzyl)-3,5-dimethyl-1H-pyrazol-4-yl]-2-(trifluoromethyl)quinoline-4-carboxamide]", "values": [{"measurement": "IC50", "result": 15.7, "unit": "nM"}]}, {"smiles": "Cc1nn(Cc2ccc(F)cc2)c(C)c1NC(=O)c1cc(C(F)(F)F)nc2cccc(F)c12", "note": "[Example 26, 5-fluoro-N-[1-(4-fluorobenzyl)-3,5-dimethyl-1H-pyrazol-4-yl]-2-(trifluoromethyl)quinoline-4-carboxamide]", "values": [{"measurement": "IC50", "result": 15.7, "unit": "nM"}]}, {"smiles": "COc1cc(C(=O)Nc2c(C)nn(Cc3ccc(F)cc3)c2C)c2ccccc2n1", "note": "[Example 27, N-[1-(4-fluorobenzyl)-3,5-dimethyl-1H-pyrazol-4-yl]-2-methoxyquinoline-4-carboxamide]", "values": [{"measurement": "IC50", "result": 16.5, "unit": "nM"}]}, {"smiles": "Cc1cccc(Cn2nc(C)c(NC(=O)c3cc(C(F)(F)F)nc4c(Cl)cc(Cl)cc34)c2C)c1", "note": "[Example 28, 6,8-dichloro-N-[3,5-dimethyl-1-(3-methylbenzyl)-1H-pyrazol-4-yl]-2-(trifluoromethyl)quinoline-4-carboxamide]", "values": [{"measurement": "IC50", "result": 16.8, "unit": "nM"}]}, {"smiles": "Cc1nn(Cc2ccc(F)cc2)c(C)c1NC(=O)c1cc(C(F)(F)F)nc2cc(F)ccc12", "note": "[Example 29, 7-fluoro-N-[1-(4-fluorobenzyl)-3,5-dimethyl-1H-pyrazol-4-yl]-2-(trifluoromethyl)quinoline-4-carboxamide]", "values": [{"measurement": "IC50", "result": 19, "unit": "nM"}]}, {"smiles": "Cc1nn(Cc2ccc(F)cc2)c(C)c1NC(=O)c1cc(C(F)(F)F)nc2ccc(F)cc12", "note": "[Example 30, 6-fluoro-N-[1-(4-fluorobenzyl)-3,5-dimethyl-1H-pyrazol-4-yl]-2-(trifluoromethyl)quinoline-4-carboxamide]", "values": [{"measurement": "IC50", "result": 19.5, "unit": "nM"}]}, {"smiles": "Cc1ccc(Cn2nc(C)c(NC(=O)c3cc(C(F)(F)F)nc4c(Cl)cc(Cl)cc34)c2C)cc1", "note": "[Example 31, 6,8-dichloro-N-[3,5-dimethyl-1-(4-methylbenzyl)-1H-pyrazol-4-yl]-2-(trifluoromethyl)quinoline-4-carboxamide]", "values": [{"measurement": "IC50", "result": 20, "unit": "nM"}]}, {"smiles": "Cc1c(NC(=O)c2cc(C(F)(F)F)nc3ccc(Br)cc23)c(C(F)(F)F)nn1Cc1ccc(F)cc1", "note": "[Example 32, 6-bromo-N-[1-(4-fluorobenzyl)-5-methyl-3-(trifluoromethyl)-1H-pyrazol-4-yl]-2-(trifluoromethyl)quinoline-4-carboxamide]", "values": [{"measurement": "IC50", "result": 20.5, "unit": "nM"}]}, {"smiles": "Cc1nn(Cc2ccccc2)c(C)c1NC(=O)c1cc(C(F)(F)F)nc2ccc(Br)cc12", "note": "[Example 33, N-(1-benzyl-3,5-dimethyl-1H-pyrazol-4-yl)-6-bromo-2-(trifluoromethyl)quinoline-4-carboxamide]", "values": [{"measurement": "IC50", "result": 25, "unit": "nM"}]}]}
